Measurements published in ChEMBL document CHEMBL1201862, “PubChem BioAssay data set” (2004).
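These data come from cells grown in 96-well plates and exposed to compound for 48 hours at five concentrations. GI50 = concentration required for 50% inhibition of growth.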 Active and inactive are the calls of the source. Cut-off read from the data, not from the text of the source: active = GI50 up to about 1.1 µM and inactive = higher.

What was measured:
Experiment in all cases: NCI-60 cell line screen, 48 h
K562 = system: K562
SK-MEL-28 = system: SK-MEL-28
A549 = system: A549
COLO 205 = system: COLO 205
HCT-116 = system: HCT-116
SF-295 = system: SF-295
RXF 393 = system: RXF 393
IGROV-1 = system: IGROV-1
NCI-H460 = system: NCI-H460
HL-60 = system: HL-60
SN12C = system: SN12C
UO-31 = system: UO-31
MOLT-4 = system: MOLT-4
CAKI-1 = system: CAKI-1
SF-268 = system: SF-268
OVCAR-3 = system: OVCAR-3
HCT-15 = system: HCT-15
U-251 = system: U-251
OVCAR-8 = system: OVCAR-8
UACC-62 = system: UACC-62

CC(=O)Nc1ccc(C2=N/C(=C\c3ccc(Cl)c(Cl)c3)C(=O)O2)cc1
GI50 (K562): > 100 µM (inactive)
GI50 (SK-MEL-28): > 100 µM (inactive)
GI50 (A549): > 100 µM (inactive)
GI50 (COLO 205): > 100 µM (inactive)
GI50 (HCT-116): > 100 µM (inactive)
GI50 (SF-295): > 100 µM (inactive)
GI50 (RXF 393): > 100 µM (inactive)
GI50 (IGROV-1): > 100 µM (inactive)
GI50 (NCI-H460): > 100 µM (inactive)
GI50 (HL-60): > 100 µM (inactive)
GI50 (SN12C): > 100 µM (inactive)
GI50 (UO-31): > 100 µM (inactive)
GI50 (MOLT-4): > 100 µM (inactive)
GI50 (CAKI-1): > 100 µM (inactive)
GI50 (SF-268): > 100 µM (inactive)
GI50 (OVCAR-3): > 100 µM (inactive)
GI50 (HCT-15): > 100 µM
GI50 (U-251): > 100 µM (inactive)
GI50 (OVCAR-8): > 100 µM (inactive)
GI50 (UACC-62): > 100 µM (inactive)

NC(CCOCCP(=O)(O)CCC1C=CC=CC1)C(=O)O (stereo not given)
GI50 (K562): > 100 µM (inactive)
GI50 (SK-MEL-28): > 100 µM (inactive)
GI50 (A549): > 100 µM (inactive)
GI50 (COLO 205): > 100 µM (inactive)
GI50 (HCT-116): > 100 µM (inactive)
GI50 (SF-295): > 100 µM (inactive)
GI50 (RXF 393): > 100 µM (inactive)
GI50 (IGROV-1): > 100 µM (inactive)
GI50 (NCI-H460): > 100 µM (inactive)
GI50 (HL-60): > 100 µM (inactive)
GI50 (SN12C): > 100 µM (inactive)
GI50 (UO-31): > 100 µM (inactive)
GI50 (MOLT-4): > 100 µM (inactive)
GI50 (CAKI-1): > 100 µM (inactive)
GI50 (SF-268): > 100 µM (inactive)
GI50 (OVCAR-3): > 100 µM (inactive)
GI50 (HCT-15): > 100 µM
GI50 (U-251): > 100 µM (inactive)
GI50 (OVCAR-8): > 100 µM (inactive)
GI50 (UACC-62): 43.8 µM (inactive)

CN(c1ccccc1)c1c(-c2ccccc2)c(=O)oc2c1ccc1occc12
GI50 (K562): > 100 µM (inactive)
GI50 (SK-MEL-28): > 100 µM (inactive)
GI50 (A549): > 100 µM (inactive)
GI50 (COLO 205): > 100 µM (inactive)
GI50 (HCT-116): > 100 µM (inactive)
GI50 (SF-295): > 100 µM (inactive)
GI50 (RXF 393): > 92.3 µM (inactive)
GI50 (IGROV-1): > 100 µM (inactive)
GI50 (NCI-H460): > 76.7 µM (inactive)
GI50 (HL-60): 39.7 µM (inactive)
GI50 (SN12C): > 100 µM (inactive)
GI50 (UO-31): > 100 µM (inactive)
GI50 (MOLT-4): 22.2 µM (inactive)
GI50 (CAKI-1): 36.2 µM (inactive)
GI50 (SF-268): > 100 µM (inactive)
GI50 (OVCAR-3): > 100 µM (inactive)
GI50 (HCT-15): > 88.5 µM
GI50 (U-251): > 100 µM (inactive)
GI50 (OVCAR-8): > 100 µM (inactive)
GI50 (UACC-62): > 100 µM (inactive)

CC(C)(CCCCC(C)(C)NC1=NCCO1)NC1=NCCO1
GI50 (K562): > 10 µM (inactive)
GI50 (SK-MEL-28): > 10 µM (inactive)
GI50 (A549): > 10 µM (inactive)
GI50 (COLO 205): > 10 µM (inactive)
GI50 (HCT-116): > 10 µM (inactive)
GI50 (SF-295): > 10 µM (inactive)
GI50 (RXF 393): > 10 µM (inactive)
GI50 (IGROV-1): > 10 µM (inactive)
GI50 (NCI-H460): > 10 µM (inactive)
GI50 (HL-60): > 10 µM (inactive)
GI50 (SN12C): > 10 µM (inactive)
GI50 (UO-31): > 10 µM (inactive)
GI50 (MOLT-4): > 10 µM (inactive)
GI50 (CAKI-1): > 10 µM (inactive)
GI50 (SF-268): > 10 µM (inactive)
GI50 (OVCAR-3): > 10 µM (inactive)
GI50 (HCT-15): > 10 µM
GI50 (U-251): > 10 µM (inactive)
GI50 (OVCAR-8): > 10 µM (inactive)
GI50 (UACC-62): > 10 µM (inactive)

COc1cc2c(cc1Oc1c(Oc3c(O)c(OC)cc4c3C(CC(C)C)N(C)CC4)c(OC)cc3c1C(CC(C)C)N(C)CC3)C(CC(C)C)N(C)CC2 (stereo not given)
GI50 (K562): 1.02 µM (active)
GI50 (SK-MEL-28): 0.897 µM (active)
GI50 (A549): 0.429 µM (active)
GI50 (COLO 205): 0.351 µM (active)
GI50 (HCT-116): 0.643 µM (active)
GI50 (SF-295): 0.904 µM (active)
GI50 (RXF 393): 0.495 µM (active)
GI50 (IGROV-1): 3.02 µM (inactive)
GI50 (NCI-H460): 0.519 µM (active)
GI50 (HL-60): 3.03 µM (inactive)
GI50 (SN12C): 0.577 µM (active)
GI50 (UO-31): 3.95 µM (inactive)
GI50 (MOLT-4): 1.03 µM (active)
GI50 (CAKI-1): 0.575 µM (active)
GI50 (SF-268): 1.51 µM (inactive)
GI50 (OVCAR-3): 1.12 µM (inactive)
GI50 (HCT-15): 1.81 µM
GI50 (U-251): 0.492 µM (active)
GI50 (OVCAR-8): 0.618 µM (active)
GI50 (UACC-62): 0.573 µM (active)

CCN(CC)c1c(C)c(C(=O)OC)nn1-c1ccccc1
GI50 (K562): 36.9 µM (inactive)
GI50 (SK-MEL-28): > 100 µM (inactive)
GI50 (A549): 97.5 µM (inactive)
GI50 (COLO 205): > 100 µM (inactive)
GI50 (HCT-116): 89.1 µM (inactive)
GI50 (SF-295): > 83.6 µM (inactive)
GI50 (RXF 393): 33.3 µM (inactive)
GI50 (IGROV-1): > 100 µM (inactive)
GI50 (NCI-H460): > 100 µM (inactive)
GI50 (HL-60): 35.2 µM (inactive)
GI50 (SN12C): > 100 µM (inactive)
GI50 (UO-31): 33 µM (inactive)
GI50 (MOLT-4): 43.1 µM (inactive)
GI50 (CAKI-1): > 44.7 µM (inactive)
GI50 (SF-268): 81.3 µM (inactive)
GI50 (OVCAR-3): 60.5 µM (inactive)
GI50 (HCT-15): > 100 µM
GI50 (U-251): 61.1 µM (inactive)
GI50 (OVCAR-8): > 100 µM (inactive)
GI50 (UACC-62): > 100 µM (inactive)

C=C1CC(OC)(C(O)C(=O)N[C@H]2OCO[C@H]3C2O[C@H](C[C@@H](CO)OC)C(C)(C)C3OC)O[C@H](C)[C@@H]1C (stereo not given in full)
GI50 (K562): < 0.00931 µM (active)
GI50 (SK-MEL-28): < 0.00931 µM (active)
GI50 (A549): < 0.00931 µM (active)
GI50 (COLO 205): < 0.00931 µM (active)
GI50 (HCT-116): < 0.00931 µM (active)
GI50 (SF-295): < 0.00931 µM (active)
GI50 (RXF 393): < 0.00931 µM (active)
GI50 (IGROV-1): < 0.00931 µM (active)
GI50 (NCI-H460): < 0.00931 µM (active)
GI50 (HL-60): < 0.00931 µM (active)
GI50 (SN12C): < 0.00931 µM (active)
GI50 (UO-31): < 0.00931 µM (active)
GI50 (MOLT-4): 0.931 µM (active)
GI50 (CAKI-1): < 0.00931 µM (active)
GI50 (SF-268): < 0.00931 µM (active)
GI50 (OVCAR-3): < 0.00931 µM (active)
GI50 (HCT-15): < 0.00931 µM
GI50 (U-251): < 0.00931 µM (active)
GI50 (OVCAR-8): < 0.00931 µM (active)
GI50 (UACC-62): < 0.00931 µM (active)

Nc1c(C(=O)Nc2ccc(C3=NCCN3)cc2)cccc1C(=O)Nc1ccc(C2=NCCN2)cc1
GI50 (K562): > 100 µM (inactive)
GI50 (SK-MEL-28): > 100 µM (inactive)
GI50 (A549): > 100 µM (inactive)
GI50 (COLO 205): > 100 µM (inactive)
GI50 (HCT-116): > 100 µM (inactive)
GI50 (SF-295): > 100 µM (inactive)
GI50 (RXF 393): > 100 µM (inactive)
GI50 (IGROV-1): > 100 µM (inactive)
GI50 (NCI-H460): > 100 µM (inactive)
GI50 (HL-60): > 100 µM (inactive)
GI50 (SN12C): > 88.1 µM (inactive)
GI50 (UO-31): > 100 µM (inactive)
GI50 (MOLT-4): > 100 µM (inactive)
GI50 (CAKI-1): > 100 µM (inactive)
GI50 (SF-268): > 100 µM (inactive)
GI50 (OVCAR-3): > 100 µM (inactive)
GI50 (HCT-15): > 100 µM
GI50 (U-251): 53.5 µM (inactive)
GI50 (OVCAR-8): 65.3 µM (inactive)
GI50 (UACC-62): > 100 µM (inactive)
